# In patent publication US20230117034A1, “PYRAZOLOTRIAZINES” (Bayer Aktiengesellschaft, priority 2019, published 2023):
# Target: T1, CYCLIN K (nuclear staining in CAL-120 cells) (Homo sapiens, UniProt O75909)
# T1 construct: endogenous in cells; host or cells: CAL-120 human breast cancer cells (DSMZ ACC 459)
# Test: CYCLIN K nuclear protein level: immunofluorescence high content analysis (CAL-120)
# Assay type: cell-based
# Settings: 24 h, 50% reduction of nuclear CCNK staining intensity, median, read-out: CYCLIN K degradation IF, DC50-[mol/l] (median)
# How it was run: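 Readout is automated confocal image analysis of nuclear cyclin K immunofluorescence (Hoechst nuclei) after PFA fixation. Cells were CAL-120, exposed to compound dose-response 24 h at 37 °C; values are DC50 for halving nuclear CCNK signal relative to DMSO and control wells.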
# T1 sequence (O75909 whole entry): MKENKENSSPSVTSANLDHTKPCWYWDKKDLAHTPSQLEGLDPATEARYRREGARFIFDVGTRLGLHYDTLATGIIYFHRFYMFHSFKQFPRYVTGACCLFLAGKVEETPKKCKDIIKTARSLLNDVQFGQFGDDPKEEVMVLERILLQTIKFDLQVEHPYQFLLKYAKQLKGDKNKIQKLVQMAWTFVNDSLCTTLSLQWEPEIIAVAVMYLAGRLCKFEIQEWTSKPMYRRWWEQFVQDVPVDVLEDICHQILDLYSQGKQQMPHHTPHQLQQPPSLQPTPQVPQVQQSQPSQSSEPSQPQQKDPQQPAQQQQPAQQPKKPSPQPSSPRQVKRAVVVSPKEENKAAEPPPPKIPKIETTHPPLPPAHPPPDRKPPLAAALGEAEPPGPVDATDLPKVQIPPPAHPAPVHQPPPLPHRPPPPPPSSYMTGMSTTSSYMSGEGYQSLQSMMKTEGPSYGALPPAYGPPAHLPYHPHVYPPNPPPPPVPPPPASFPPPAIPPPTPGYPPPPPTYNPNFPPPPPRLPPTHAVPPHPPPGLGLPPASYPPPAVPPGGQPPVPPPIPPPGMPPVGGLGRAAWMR
# T1 sequence (Q9NYV4 whole entry partner): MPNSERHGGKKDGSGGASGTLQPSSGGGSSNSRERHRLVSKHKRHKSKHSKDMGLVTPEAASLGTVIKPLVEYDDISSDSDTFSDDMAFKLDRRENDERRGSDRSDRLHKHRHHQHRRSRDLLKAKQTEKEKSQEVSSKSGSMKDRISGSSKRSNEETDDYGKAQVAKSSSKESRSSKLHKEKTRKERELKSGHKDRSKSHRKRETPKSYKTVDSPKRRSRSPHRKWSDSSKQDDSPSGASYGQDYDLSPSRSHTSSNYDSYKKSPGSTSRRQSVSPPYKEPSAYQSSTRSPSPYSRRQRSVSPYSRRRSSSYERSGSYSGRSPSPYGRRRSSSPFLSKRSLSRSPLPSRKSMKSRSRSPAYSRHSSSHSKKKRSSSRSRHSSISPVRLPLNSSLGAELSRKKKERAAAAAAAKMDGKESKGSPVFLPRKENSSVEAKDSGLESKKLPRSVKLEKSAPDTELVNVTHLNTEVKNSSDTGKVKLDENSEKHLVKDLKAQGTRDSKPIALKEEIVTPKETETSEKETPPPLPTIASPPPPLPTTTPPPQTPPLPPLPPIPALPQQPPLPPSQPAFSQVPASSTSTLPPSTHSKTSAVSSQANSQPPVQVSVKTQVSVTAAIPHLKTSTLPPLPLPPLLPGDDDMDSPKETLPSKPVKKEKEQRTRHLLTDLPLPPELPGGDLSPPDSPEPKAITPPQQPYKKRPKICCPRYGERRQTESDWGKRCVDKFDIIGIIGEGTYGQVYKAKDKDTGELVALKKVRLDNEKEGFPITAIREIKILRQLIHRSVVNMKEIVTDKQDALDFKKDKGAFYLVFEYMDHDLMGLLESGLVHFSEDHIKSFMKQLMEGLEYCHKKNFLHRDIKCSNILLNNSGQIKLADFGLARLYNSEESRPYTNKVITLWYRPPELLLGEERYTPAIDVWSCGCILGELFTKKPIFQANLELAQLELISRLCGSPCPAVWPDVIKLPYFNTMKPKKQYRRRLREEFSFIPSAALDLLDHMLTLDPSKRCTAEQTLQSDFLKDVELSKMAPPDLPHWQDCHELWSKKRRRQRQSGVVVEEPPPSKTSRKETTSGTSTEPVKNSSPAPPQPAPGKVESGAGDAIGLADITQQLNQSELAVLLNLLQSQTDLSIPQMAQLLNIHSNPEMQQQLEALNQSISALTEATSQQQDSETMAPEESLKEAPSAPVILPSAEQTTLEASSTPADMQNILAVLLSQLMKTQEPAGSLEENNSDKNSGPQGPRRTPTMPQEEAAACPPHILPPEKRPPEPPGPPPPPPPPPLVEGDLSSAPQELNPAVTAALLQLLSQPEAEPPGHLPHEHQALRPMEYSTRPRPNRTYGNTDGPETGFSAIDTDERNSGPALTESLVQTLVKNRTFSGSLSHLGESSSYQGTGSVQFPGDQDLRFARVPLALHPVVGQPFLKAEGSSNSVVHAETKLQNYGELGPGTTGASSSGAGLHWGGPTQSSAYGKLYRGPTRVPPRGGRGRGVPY
row,DC50,Compound
1,2.19 nM,"C[C@@H]1COCCN1c1nc(NCc2nc3ccccc3[nH]2)n2ncc(Br)c2n1 [Example 56, N-[(1H-benzimidazol-2-yl)methyl]-8-bromo-2-[(3R)-3-methylmorpholin-4-yl]pyrazolo[1,5-a][1,3,5]triazin-4-amine]"
2,0.611 nM,"Cc1cccc(-c2nnc(CNc3nc(N4CCOCC4)nc4c(Br)cnn34)[nH]2)c1 [Example 40, 8-bromo-N-{[5-(3-methylphenyl)-4H-1,2,4-triazol-3-yl]methyl}-2-(morpholin-4-yl)pyrazolo[1,5-a][1,3,5]triazin-4-amine]"
3,3.15 nM,"Clc1cccc(-c2nnc(CNc3nc(N4CCOCC4)nc4c(Br)cnn34)[nH]2)c1 [Example 51, 8-bromo-N-{[5-(3-chlorophenyl)-4H-1,2,4-triazol-3-yl]methyl}-2-(morpholin-4-yl)pyrazolo[1,5-a][1,3,5]triazin-4-amine]"
4,2.58 nM,"Fc1cccc(-c2nnc(CNc3nc(N4CCOCC4)nc4c(Br)cnn34)[nH]2)c1 [Example 44, 8-bromo-N-{[5-(3-fluorophenyl)-4H-1,2,4-triazol-3-yl]methyl}-2-(morpholin-4-yl)pyrazolo[1,5-a][1,3,5]triazin-4-amine]"

# Test system: MDA-MB-231, human breast cancer cells
# Test: Proliferation assay MDA-MB-231 (crystal violet, 4 days)
# Assay type: cell-based
# Settings: Homo sapiens, MDA-MB-231, 96 h, MDA-MB-231 cells, median, read-out: Prolif-MDA MB-231, IC50-[mol/l] (median)
# How it was run: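 Crystal violet proliferation read-out after 4 days of compound exposure (0.01-10 µmol/L; solvent 0.1% DMSO). Extinction at 595 nm, set between zero-point (0%) and vehicle (100%), fitted with 4 parameters to give IC50.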
row,Compound,IC50
1,"Brc1cnn2c(NCc3nc4ccccc4[nH]3)nc(OCCN3CCCC3)nc12 [Example 404, N-[(1H-benzimidazol-2-yl)methyl]-8-bromo-2-[2-(pyrrolidin-1-yl)ethoxy]pyrazolo[1,5-a][1,3,5]triazin-4-amine]",1840 nM
2,"O=C(O)C(F)(F)F.c1ccc2[nH]c(CNc3nc(N4CCOCC4)nc4c(-c5ccnnc5)cnn34)nc2c1 [Example 438, trifluoroacetic acid N-[(1H-benzimidazol-2-yl)methyl]-2-(morpholin-4-yl)-8-(pyridazin-4-yl)pyrazolo[1,5-a][1,3,5]triazin-4-amine]",283 nM
3,"COc1cccc2nc(CNc3nc(N4CCN(C)CC4)nc4c(-c5nccs5)cnn34)[nH]c12 [Example 416, N-[(7-methoxy-1H-benzimidazol-2-yl)methyl]-2-(4-methylpiperazin-1-yl)-8-(1,3-thiazol-2-yl)pyrazolo[1,5-a][1,3,5]triazin-4-amine]",986 nM
4,"Cc1cnn2c(NCc3nc4c(F)c(F)ccc4[nH]3)nc(N3CC4CCC(C3)N4)nc12 [Example 400, 2-(3,8-diazabicyclo[3.2.1]octan-3-yl)-N-[(4,5-difluoro-1H-benzimidazol-2-yl)methyl]-8-methylpyrazolo[1,5-a][1,3,5]triazin-4-amine]",20.3 nM
5,"CN1CCN(c2nc(NCc3nc4cc(Cl)c(Cl)cc4[nH]3)n3ncc(-c4cnn(C)c4)c3n2)CC1 [Example 420, N-[(5,6-dichloro-1H-benzimidazol-2-yl)methyl]-2-(4-methylpiperazin-1-yl)-8-(1-methyl-1H-pyrazol-4-yl)pyrazolo[1,5-a][1,3,5]triazin-4-amine]",525 nM
6,"CC(C)c1cnn2c(NCc3nnc(-c4ccccc4)[nH]3)nc(N3CCOCC3)nc12 [Example 33, 2-(morpholin-4-yl)-N-[(5-phenyl-4H-1,2,4-triazol-3-yl)methyl]-8-(propan-2-yl)pyrazolo[1,5-a][1,3,5]triazin-4-amine]",290 nM
7,"Brc1cnn2c(NCc3nc4ccccc4[nH]3)nc(OCC3CC3)nc12 [Example 408, N-[(1H-benzimidazol-2-yl)methyl]-8-bromo-2-(cyclopropylmethoxy)pyrazolo[1,5-a][1,3,5]triazin-4-amine]",741 nM
8,"Brc1cnn2c(NCc3nc4ccccc4[nH]3)nc(OC3CCCCC3)nc12 [Example 406, N-[(1H-benzimidazol-2-yl)methyl]-8-bromo-2-(cyclohexyloxy)pyrazolo[1,5-a][1,3,5]triazin-4-amine]",283 nM
9,"COc1cccc2[nH]c(CNc3nc(N4CCOCC4)nc4c(-c5nccs5)cnn34)nc12 [Example 414, N-[(4-methoxy-1H-benzimidazol-2-yl)methyl]-2-(morpholin-4-yl)-8-(1,3-thiazol-2-yl)pyrazolo [1,5-a][1,3,5]triazin-4-amine]",687 nM
10,"Cc1cnn2c(NCc3nc4ccccc4[nH]3)nc(N3CC4CCC(C3)N4)nc12 [Example 401, N-[(1H-benzimidazol-2-yl)methyl]-2-(3,8-diazabicyclo[3.2.1]octan-3-yl)-8-methylpyrazolo[1,5-a][1,3,5]triazin-4-amine]",132 nM
11,"CC(C)COc1nc(NCc2nc3ccccc3[nH]2)n2ncc(Br)c2n1 [Example 409, N-[(1H-benzimidazol-2-yl)methyl]-8-bromo-2-(2-methylpropoxy)pyrazolo[1,5-a][1,3,5]triazin-4-amine]",343 nM
12,"NCCOCCOCCNc1nc(NCc2nc3ccccc3[nH]2)n2ncc(Br)c2n1 [Example 412, N2-{2-[2-(2-aminoethoxy)ethoxy]ethyl}-N4-[(1H-benzimidazol-2-yl)methyl]-8-bromopyrazolo[1,5-a][1,3,5]triazine-2,4-diamine]",1910 nM
13,"CN(C)CCOc1nc(NCc2nc3ccccc3[nH]2)n2ncc(Br)c2n1 [Example 399, N-[(1H-benzimidazol-2-yl)methyl]-8-bromo-2-[2-(dimethylamino)ethoxy]pyrazolo[1,5-a][1,3,5]triazin-4-amine]",384 nM
14,"Brc1cnn2c(NCc3nc4ccccc4[nH]3)nc(OC3CCOCC3)nc12 [Example 405, N-[(1H-benzimidazol-2-yl)methyl]-8-bromo-2-[(oxan-4-yl)oxy]pyrazolo[1,5-a][1,3,5]triazin-4-amine]",439 nM
15,"CN1CCN(c2nc(NCc3nc4c(F)c(F)ccc4[nH]3)n3ncc(-c4nccs4)c3n2)CC1 [Example 415, N-[(4,5-difluoro-1H-benzimidazol-2-yl)methyl]-2-(4-methylpiperazin-1-yl)-8-(1,3-thiazol-2-yl)pyrazolo[1,5-a][1,3,5]triazin-4-amine]",584 nM
16,"Cc1cnn2c(NCc3nc4ccccc4[nH]3)nc(N(C)CC(C)(C)O)nc12 [Example 397, 1-[(4-{[(1H-benzimidazol-2-yl)methyl]amino}-8-methylpyrazolo[1,5-a][1,3,5]triazin-2-yl)(methyl)amino]-2-methylpropan-2-ol]",399 nM
17,"COC(C)(C)COc1nc(NCc2nc3ccccc3[nH]2)n2ncc(Br)c2n1 [Example 403, N-[(1H-benzimidazol-2-yl)methyl]-8-bromo-2-(2-methoxy-2-methylpropoxy)pyrazolo[1,5-a][1,3,5]triazin-4-amine]",524 nM

# The remaining lines, values ahead:
row,IC50,Compound
1,180 nM,"COc1cccc2nc(CNc3nc(N4CCOCC4)nc4c(-c5ccnnc5)cnn34)[nH]c12.O=C(O)C(F)(F)F [Example 439, trifluoroacetic acid N-[(7-methoxy-1H-benzimidazol-2-yl)methyl]-2-(morpholin-4-yl)-8-(pyridazin-4-yl)pyrazolo[1,5-a][1,3,5]triazin-4-amine]"
2,157 nM,"Cc1cnn2c(NCc3nc4ccccc4[nH]3)nc(N3CCN(C)CC3)nc12 [Example 396, N-[(1H-benzimidazol-2-yl)methyl]-8-methyl-2-(4-methylpiperazin-1-yl)pyrazolo[1,5-a][1,3,5]triazin-4-amine]"
3,120 nM,"Cc1cnn2c(NCc3nc4ccccc4[nH]3)nc(N3CCOCC3)nc12 [Example 393, N-[(1H-benzimidazol-2-yl)methyl]-8-methyl-2-(morpholin-4-yl)pyrazolo[1,5-a][1,3,5]triazin-4-amine]"
4,87.5 nM,"FC(F)n1cc(-c2cnn3c(NCc4nc5ccccc5[nH]4)nc(N4CCOCC4)nc23)cn1 [Example 421, N-[(1H-benzimidazol-2-yl)methyl]-8-[1-(difluoromethyl)-1H-pyrazol-4-yl]-2-(morpholin-4-yl)pyrazolo[1,5-a][1,3,5]triazin-4-amine]"
5,81.5 nM,"COc1ccccc1-c1nnc(CNc2nc(N3CCN(C)CC3)nc3c(C4CC4(F)F)cnn23)[nH]1 (stereo not shown) [Example 430, 8-(2,2-difluorocyclopropyl)-N-{[5-(2-methoxyphenyl)-4H-1,2,4-triazol-3-yl]methyl}-2-(4-methylpiperazin-1-yl)pyrazolo[1,5-a][1,3,5]triazin-4-amine]"
6,73.7 nM,"Clc1cc2nc(CNc3nc(N4CCOCC4)nc4c(-c5cscn5)cnn34)[nH]c2cc1Cl [Example 424, N-[(5,6-dichloro-1H-benzimidazol-2-yl)methyl]-2-(morpholin-4-yl)-8-(1,3-thiazol-4-yl)pyrazolo [1,5-a][1,3,5]triazin-4-amine]"
7,48.6 nM,"CCNc1nc(NCc2ncc(-c3ccccc3)[nH]2)n2ncc(C(C)C)c2n1 [Example 34, N^2-ethyl-N^4-[(5-phenyl-1H-imidazol-2-yl)methyl]-8-(propan-2-yl)pyrazolo[1,5-a][1,3,5]triazine-2,4-diamine]"
8,21.4 nM,"Clc1cc2nc(CNc3nc(N4CCOCC4)nc4c(-c5ccnnc5)cnn34)[nH]c2cc1Cl.O=C(O)C(F)(F)F [Example 440, trifluoroacetic acid N-[(5,6-dichloro-1H-benzimidazol-2-yl)methyl]-2-(morpholin-4-yl)-8-(pyridazin-4-yl)pyrazolo[1,5-a][1,3,5]triazin-4-amine]"
9,19.8 nM,"Cc1cnn2c(NCc3nc4c(F)c(F)ccc4[nH]3)nc(N3CCN(C)CC3)nc12 [Example 394, N-[(4,5-difluoro-1H-benzimidazol-2-yl)methyl]-8-methyl-2-(4-methylpiperazin-1-yl)pyrazolo[1,5-a][1,3,5]triazin-4-amine]"
10,18.2 nM,"FC(F)n1cc(-c2cnn3c(NCc4nc5cc(Cl)c(Cl)cc5[nH]4)nc(N4CCOCC4)nc23)cn1 [Example 423, N-[(5,6-dichloro-1H-benzimidazol-2-yl)methyl]-8-[1-(difluoromethyl)-1H-pyrazol-4-yl]-2-(morpholin-4-yl)pyrazolo[1,5-a][1,3,5]triazin-4-amine]"
